Test results: ChEMBL document CHEMBL1128783, “N-Methyl and N-cyclopropylmethyl-14,14-[dithiobis[(2-oxo-2,1-ethanediyl)imino]]bis(7,8-dihydro-5-methyl-morphinone) MET-TAMO and N-CPM-MET-TAMO: Synthesis and opioid binding properties” (Bioorg Med Chem Lett, 1995)

Legend:
[1] = biological target: T1, Mu-type opioid receptor (Bos taurus, UniProt P79350); assay: Inhibitory activity against Opioid receptor mu 1 binding to bovine striatal membrane; set-up: species or system Striatum
[2] = Inhibitory activity against Opioid receptor kappa1 binding to bovine striatal membrane
[3] = Inhibitory activity against Opioid receptor delta 1 binding to bovine striatal membrane
[4] = biological target: Mu-type opioid receptor (Bos taurus) (UniProt P79350); assay: Effect at dose 40 nM on wash-resistant inhibition of [3H]DAMGO binding to TPCK-treated membranes; set-up: scale not given: the % may be the effect or the level left
Sequence of Mu-type opioid receptor (Bos taurus) (P79350 whole entry): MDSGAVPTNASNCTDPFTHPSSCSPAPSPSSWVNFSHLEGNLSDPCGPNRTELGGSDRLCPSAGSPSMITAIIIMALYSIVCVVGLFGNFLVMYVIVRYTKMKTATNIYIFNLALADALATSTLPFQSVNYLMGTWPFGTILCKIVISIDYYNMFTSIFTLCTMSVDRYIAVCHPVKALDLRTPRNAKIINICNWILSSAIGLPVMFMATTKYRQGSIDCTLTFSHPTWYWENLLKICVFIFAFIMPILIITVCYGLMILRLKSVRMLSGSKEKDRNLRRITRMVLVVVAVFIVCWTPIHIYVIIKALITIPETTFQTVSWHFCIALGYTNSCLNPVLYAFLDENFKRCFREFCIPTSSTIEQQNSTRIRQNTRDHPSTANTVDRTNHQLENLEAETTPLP

[5] = biological target: T1, Mu-type opioid receptor; assay: Binding affinity towards Opioid receptor mu 1 using [3H]DAMGO expressed as Kd

T1 sequence (P79350 whole entry): as above

## O=C(CSSCC(=O)N[C@@]12CCC(=O)[C@@H]3Oc4c(O)ccc5c4[C@@]31CCN(CC1CC1)[C@@H]2C5)N[C@@]12CCC(=O)[C@@H]3Oc4c(O)ccc5c4[C@@]31CCN(CC1CC1)[C@@H]2C5
[1]
  IC50: 3.9 nM
[2]
  IC50: 10 nM
[3]
  IC50: 24 nM

## CN1CC[C@]23c4c5ccc(O)c4O[C@H]2C(=O)CC[C@@]3(NC(=O)CSSCC(=O)N[C@@]23CCC(=O)[C@@H]4Oc6c(O)ccc7c6[C@@]42CCN(C)[C@@H]3C7)[C@H]1C5
[2]
  IC50: 41 nM
[3]
  IC50: 11 nM

## CN1CC[C@]23c4c5ccc(O)c4O[C@@]2(C)C(=O)CC[C@@]3(NC(=O)CSSCC(=O)N[C@@]23CCC(=O)[C@]4(C)Oc6c(O)ccc7c6[C@@]42CCN(C)C3C7)C1C5
[1]
  IC50: 2.9 nM

## OC(CS)C(O)CS (centres undefined)
[4]
  Control: 107%

## C[C@@]12Oc3c(O)ccc4c3[C@@]13CCN(CC1CC1)[C@H](C4)[C@]3(NC(=O)CSSCC(=O)N[C@@]13CCC(=O)[C@]4(C)Oc5c(O)ccc6c5[C@@]41CCN(CC1CC1)[C@@H]3C6)CCC2=O
[5]
  Kd: 0.4 nM
[1]
  IC50: 1.4 nM
